# Measured values taken from patent publication US9233164B2, “Water soluble fullerene formulations and methods of use thereof” (BOARD OF REGENTS OF THE UNIVERSITY OF NEBRASKA, priority 2011, dated 2016).
# Test system: superoxide
# Experiment: Cell-free superoxide scavenging by EPR spectroscopy (HX+XO or FMN source, CMH spin probe)
# Type: biochemical
# Conditions: 400 U/ml SOD1
# Description: The ability of C60-polymer complexes to scavenge superoxide was measured by EPR spectroscopy, as reported (Rosenbaugh et al. (2010) Biomaterials 31:5218-26). Briefly, superoxide generated by HX—XO or a photosensitizer, FMN, was detected using the CMH spin probe. Samples contained 0.025 mM DF and 0.005 mM DETC buffer (pH 7.4), 0.025 mM CMH, 0.025 mM HX and 10 mU XO (or 0.02 mM FMN instead of HX—XO) and C60-polymer complexes at different concentrations. After complete mixing, each sample was incubated at r.t. for 5 minutes and 50 μl of the sample was loaded into a glass capillary, which was then inserted into the capillary holder of the EPR spectrometer. The CMH radical signal was recorded and EPR spectrum amplitude was quantified.
substance,measurement,value
superoxide dismutase [SOD1],Effect on EPR spectrum,completely abolished the EPR spectrum
